In publication PMC12302228 (RSC Medicinal Chemistry, 2025):
In brackets after ≈: the same amount, converted by molar mass. Like-named read-outs stand apart in the source and are kept apart here.

Key:
[1] = system: MCF7; assay: Antiproliferative activity, SRB assay; assay type: cell-based, human; settings: mean ± SEM
[2] = system: M21; assay: Antiproliferative activity, SRB assay; assay type: cell-based, human; settings: mean ± SEM
[3] = system: HT-29; assay: Antiproliferative activity, SRB assay; assay type: cell-based, human; settings: mean ± SEM
[4] = system: THP-1; assay: Antiproliferative activity, MTT assay; assay type: cell-based, human; settings: mean ± SEM
[5] = system: MOLM-13 cells; assay: Differentiation of AML cells, CD11b/CD14 flow cytometry; assay type: cell-based, human; settings: 120 h at 2-fold IC50
[6] = system: HT-1080; assay: Antiproliferative activity, SRB assay; assay type: cell-based, human; settings: read-out: IC50 HT-1080; 48 h of treatment; mean ± SEM
[7] = system: MOLM-13; assay: Antiproliferative activity, MTT assay; assay type: cell-based, human; settings: read-out: IC50 MOLM-13; 48 h of treatment; mean ± SEM
[8] = system: HL-60; assay: Antiproliferative activity, MTT assay; assay type: cell-based, human; settings: mean ± SEM
[9] = system: histone H2AX; assay: H2AX phosphorylation, immunofluorescence in M21 cells; assay type: cell-based, human; settings: 24 h at 2-fold IC50
[10] = physchem; settings: ultrapure water, 37 °C, kinetic from dmso stock
[11] = target: human DHODH (Homo sapiens, UniProt Q02127); assay: Human DHODH colorimetric; assay type: biochemical
Chain of human DHODH (Q02127 whole entry): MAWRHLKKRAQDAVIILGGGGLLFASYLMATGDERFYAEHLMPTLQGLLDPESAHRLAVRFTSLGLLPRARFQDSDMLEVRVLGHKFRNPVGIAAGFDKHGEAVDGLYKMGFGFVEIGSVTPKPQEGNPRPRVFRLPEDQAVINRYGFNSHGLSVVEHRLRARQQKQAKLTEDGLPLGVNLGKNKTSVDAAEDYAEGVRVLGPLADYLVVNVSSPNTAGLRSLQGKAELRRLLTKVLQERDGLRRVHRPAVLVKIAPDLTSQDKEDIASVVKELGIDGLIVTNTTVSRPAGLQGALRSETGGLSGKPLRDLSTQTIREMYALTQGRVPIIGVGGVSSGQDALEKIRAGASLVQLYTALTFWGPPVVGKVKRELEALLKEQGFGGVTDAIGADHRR

[12] = Metabolic stability in liver microsomes; assay type: in vitro ADME, mouse; settings: for half-life at 4 µM / microsomal CLint at 4 µM: mouse, liver microsomes, pH 7.4; for Clearance category MLM: ranked by CLint
[13] = Metabolic stability in liver microsomes; assay type: in vitro ADME; settings: rat, pH 7.4
[14] = Metabolic stability in liver microsomes; assay type: in vitro ADME; settings: human, pH 7.4
[15] = system: THP-1 cells; assay: Differentiation of AML cells, CD11b/CD14 flow cytometry; assay type: cell-based, human; settings: 120 h
[16] = Homo sapiens, MCF7, 48 h, read-out: IC50 MCF7, 48 h of treatment
[17] = Homo sapiens, M21, 48 h, read-out: IC50 M21, 48 h of treatment
[18] = Homo sapiens, HT-29, 48 h, read-out: IC50 HT-29, 48 h of treatment
[19] = read-out: IC50 MCF7, 48 h of treatment
[20] = read-out: IC50 M21, 48 h of treatment
[21] = read-out: IC50 HT-29, 48 h of treatment
[22] = read-out: IC50 THP-1, 48 h of treatment
[23] = read-out: IC50 HL-60, 48 h of treatment
[24] = Homo sapiens, HL-60, 48 h, read-out: IC50 HL-60, 48 h of treatment

SMILES | IC50 [1, 19] [µM] | IC50 [3, 21] [µM] | IC50 [6] [µM] | IC50 [7] [µM] | IC50 [4, 22] [µM] | IC50 [8, 23] [µM] | solubility at 24 h [10] [µg/mL] | IC50 [2, 20] [µM] | Phosphorylation of H2AX into γH2AX (γH2AX foci) [9] | further results
Cc1c(-c2ccc(-c3ccccc3F)cc2)nc2ccc(F)cc2c1C(=O)O [Brequinar, reference compound] | – | – | – | – | – | – | – | – | – | IC50 [1, 16]: 3.8 ± 0.9 µM; IC50 [2, 17]: 0.46 ± 0.05 µM; IC50 [3, 18]: 0.69 ± 0.07 µM; IC50 ([4]; Homo sapiens, THP-1, 48 h, read-out: IC50 THP-1, 48 h of treatment): 0.17 ± 0.04 µM; CD11b expression, share of the cell population [5]: 34%
CCNC(=O)Nc1ccc(S(=O)(=O)Oc2cccnc2I)cc1 [Compound 2, 2-Iodopyridin-3-yl 4-(3-ethylureido)benzenesulfonate] | 11 ± 1 | 10.6 ± 0.9 | 1.4 ± 0.1 | 0.9 ± 0.3 | 3.8 ± 0.6 | 25 ± 4 | 57 ± 3 (≈ 127 µM) | 13 ± 2 | promote the phosphorylation of H2AX into γH2AX | –
CCNC(=O)Nc1ccc(S(=O)(=O)Oc2cccnc2C(C)C)cc1 [Compound 3, 2-Isopropylpyridin-3-yl 4-(3-ethylureido)benzenesulfonate] | 19 ± 2 | 8.4 ± 0.7 | 1.2 ± 0.2 | 0.8 ± 0.2 | 1.5 ± 0.3 | 29 ± 6 | 40 ± 3 (≈ 110 µM) | 7 ± 1 | promote the phosphorylation of H2AX into γH2AX | –
CCNC(=O)Nc1ccc(S(=O)(=O)Oc2cccnc2I)cc1.Cl [Compound 20, 2-Iodopyridin-3-yl 4-(3-ethylureido)benzenesulfonate hydrochloride] | – | – | – | – | 1.1 ± 0.5 | – | 190 ± 10 | – | promote the phosphorylation of H2AX into γH2AX | IC50 [1, 16]: 12 ± 1 µM; IC50 [2, 17]: 7.7 ± 0.7 µM; IC50 [3, 18]: 6.8 ± 0.6 µM; IC50 [8, 24]: 37 ± 6 µM; IC50 [11]: 0.031 µM; CD11b expression, share of the cell population [5]: 38%; half-life at 4 µM [12]: 1.33 ± 0.167 h; microsomal CLint at 4 µM [12]: 18 ± 2 µL/min/mg; Clearance category MLM [12]: medium (medium clearance category for MLM (13.1 < CLint < 71.1)); half-life at 4 µM [13]: 3.17 ± 0.333 h; microsomal CLint at 4 µM [13]: 7.4 ± 0.6 µL/min/mg; half-life at 4 µM [14]: 3.6 ± 0.167 h; microsomal CLint at 4 µM [14]: 6.5 ± 0.3 µL/min/mg
CCNC(=O)Nc1ccc(S(=O)(=O)Oc2cccnc2C(C)C)cc1.Cl [Compound 21, 2-Isopropylpyridin-3-yl 4-(3-ethylureido)benzenesulfonate hydrochloride] | – | – | – | – | 6 ± 2 | – | 188 ± 1 | – | promote the phosphorylation of H2AX into γH2AX | IC50 [1, 16]: 24 ± 3 µM; IC50 [2, 17]: 11 ± 1 µM; IC50 [3, 18]: 8 ± 0.3 µM; IC50 [8, 24]: 50 ± 10 µM; IC50 [11]: 0.012 µM; CD11b expression, share of the cell population [5]: 26%; CD11b and CD14 positivity, share of the cell population [15]: 57%; half-life at 4 µM [12]: 0.95 ± 0.0667 h; microsomal CLint at 4 µM [12]: 25 ± 2 µL/min/mg; Clearance category MLM [12]: medium (medium clearance category for MLM (13.1 < CLint < 71.1)); half-life at 4 µM [13]: 2.5 ± 0.5 h; microsomal CLint at 4 µM [13]: 11 ± 2 µL/min/mg; half-life at 4 µM [14]: 1.48 ± 0.0333 h; microsomal CLint at 4 µM [14]: 15.7 ± 0.3 µL/min/mg
Cl.O=C(NCCCl)Nc1ccc(S(=O)(=O)Oc2cnccc2I)cc1 [Compound 36, 4-Iodopyridin-3-yl 4-(3-(2-chloroethyl)ureido)benzenesulfonate hydrochloride] | 3.8 ± 0.3 | 2.3 ± 0.1 | 1.2 ± 0.2 | 0.7 ± 0.2 | 0.9 ± 0.2 | 3 ± 1 | 154 ± 7 | 3.5 ± 0.4 | – | –

Now from value to molecule, other results behind:

IC50 [1, 19] [µM] | IC50 [3, 21] [µM] | IC50 [6] [µM] | IC50 [7] [µM] | IC50 [4, 22] [µM] | IC50 [8, 23] [µM] | solubility at 24 h [10] [µg/mL] | SMILES | IC50 [2, 20] [µM] | Phosphorylation of H2AX into γH2AX (γH2AX foci) [9] | further results
45 ± 4 | 45 ± 4 | 6.7 ± 0.4 | 3.7 ± 0.5 | 6 ± 2 | 80 ± 5 | 122 ± 4 | CCNC(=O)Nc1ccc(S(=O)(=O)Oc2cnccc2Br)cc1.Cl [Compound 30, 4-Bromopyridin-3-yl 4-(3-ethylureido)benzenesulfonate hydrochloride] | 44 ± 3 | – | –
19 ± 3 | 11 ± 1 | 5.3 ± 0.4 | 1.4 ± 0.4 | 2.2 ± 0.3 | 32 ± 9 | 165 ± 3 | CCNC(=O)Nc1ccc(S(=O)(=O)Oc2cnccc2I)cc1.Cl [Compound 31, 4-Iodopyridin-3-yl 4-(3-ethylureido)benzenesulfonate hydrochloride] | 11 ± 1 | – | –
26 ± 2 | 9.6 ± 0.7 | 5.9 ± 0.7 | 2.4 ± 0.3 | 2.9 ± 0.1 | > 100 | 98 ± 7 | CCNC(=O)Nc1ccc(S(=O)(=O)Oc2cnccc2C)cc1.Cl [Compound 32, 4-Methylpyridin-3-yl 4-(3-ethylureido)benzenesulfonate hydrochloride] | 35 ± 4 | – | –
24 ± 2 | 30 ± 1 | 10 ± 0.8 | 6 ± 1 | 4.1 ± 0.7 | 40 ± 10 | 124 ± 2 | CCCNC(=O)Nc1ccc(S(=O)(=O)Oc2cnccc2Br)cc1.Cl [Compound 33, 4-Bromopyridin-3-yl 4-(3-propylureido)benzenesulfonate hydrochloride] | 40 ± 1 | – | –
13 ± 1 | 14 ± 1 | 5.9 ± 0.5 | 2.7 ± 0.5 | 2.1 ± 0.6 | > 50 | 130 ± 10 | CCCNC(=O)Nc1ccc(S(=O)(=O)Oc2cnccc2I)cc1.Cl [Compound 34, 4-Iodopyridin-3-yl 4-(3-propylureido)benzenesulfonate hydrochloride] | 21 ± 2 | – | –
58 ± 8 | 39 ± 2 | 21 ± 2 | 9.2 ± 0.8 | 5 ± 2 | 16.3 ± 0.1 | 138 ± 2 | CCCNC(=O)Nc1ccc(S(=O)(=O)Oc2cnccc2C)cc1.Cl [Compound 35, 4-Methylpyridin-3-yl 4-(3-propylureido)benzenesulfonate hydrochloride] | 56 ± 3 | – | –
